US10973896B2, “Treatment or prevention of melanoma using photochemical internalization of a melanoma antigen” (PCI Biotech AS, priority 2014, dated 2021)

Experiments:
Assay type in all cases: in vivo, C57BL/6 mice
[1] = system: SIINFEKL-specific CD8 T cells; test: PCI immunisation of OT-I-spiked mice, SIINFEKL pentamer flow cytometry (Example 2)
Experimental: One day prior to the immunisation, spleens and lymph nodes were isolated from female OT-1 mice, and erythrocytes were removed by lysis (RBC Lysing Buffer Hybri-Max from Sigma-Aldrich) from the homogenised cell suspensions. The remaining cells were washed in PBS, filtered through 70 micron nylon strainers, and 2×10^6 OT-1 cells were administered by intravenous injection into recipient female C57BLJ6 mice; the adoptive transfer of SIINFEKL-specific CD8 T cells facilitates monitoring of the immune response by flow cytometry. One day or 8 hours later, mice were bled by tail bleeding, and the blood was collected in heparin-containing tubes for analysis of the baseline frequency of OVA-specific CD8 T cells.
Then, the mice were shaved on the abdominal area, and the vaccines, consisting of OVA or of a mixture of OVA and TPCS2a, were injected intradermally using syringes with 29G needles. The vaccines were kept light protected and used within 60 minutes of preparation. The vaccines were given in two injections of 50 μl each, on the left and right side of the abdominal mid line. OVA was tested at 10 to 100 μg per dose. The TPCS2a dose was 7.5 to 250 μg.
On day 0, prior to vaccination and on various days thereafter (e.g. day 6, 7, 8, 9, 14, 23, as indicated) mice were bled by tail bleeding and erythrocytes were removed by lysis, before analysis of antigen-specific CD8 T cells by flow cytometry. At the end of the experiment (typically 11, 12, 14 or 23 days), the mice were euthanized and the splenocytes analysed ex vivo. At various time points after the TPCS2a injection (0-48 hours), the mice were anaesthetised by intraperitoneal injection of a mixture of ketamine (25 mg/kg body weight) and xylazin (4 mg/kg) and placed on a light source (for illumination and activation of the photosensitiser TPCS2a). The light dose was 6 minutes, if not otherwise stated. The whole procedure is illustrated in the scheme of FIG. 6A. The illumination of mice using LumiSource™ is imaged in FIG. 6B.
(§1) The frequency of OVA-specific CD8 T-cells in blood was monitored by staining the cells with anti-CD8 antibody and H-2K^b/SIINFEKL ProS pentamer (Proimmune, Oxford, UK) for analysis by flow cytometry. The activation status of the cells was further analysed by testing the expression of CD44 and CD69 by flow cytometry. Intracellular staining for IFN-γ was done after overnight stimulation of splenocytes in 24-well plates with the CD8 epitope OVA257-264 (SIINFEKL) at 37 ° C. Brefeldin A was added during the last 4 hours. The cells were then washed and fixed with 4% formaldehyde in PBS for 10 min on ice. Anti-CD16/32 was added to block unspecific binding to Fc receptors. The cells were then permeabilised with 0.1% NP40 in PBS for 3 min and washed before staining with anti-IFN-γ, anti-CD8 and ant-CD44 antibodies (eBioscience or BD Pharmingen). The cells were acquired using FACSCanto (BD Biosciences, San Jose, USA) and analysed using FlowJo 8.5.2 software (Tree Star, Inc., Ashland, Oreg.).

[2] = system: OVA-expressing B16 melanoma cells; test: Therapeutic vaccination of melanoma-bearing mice (Example 1); details: immunised after appearance of tumours under the skin; FIG. 2A
[3] = system: CD8, CD44 and IFN-γ positive cells; test: Intracellular IFN-γ staining after SIINFEKL re-stimulation (Example 2)
Experimental: as §1

[4] = system: spleen cells restimulated by SIINFEKL peptide; test: Poly(IC) and CpG experiment, IFN-gamma ELISA of restimulated spleen cells (Example 4); details: day 14 spleen cells; FIG. 19B
Experimental: For ELISA analysis 2×10^5 splenocytes were re-stimulated in 96-well plates with 0.005 μg/ml of the SIINFEKL peptide. After 72 hours, supernatants were collected and analysed for IFN-γ by ELISA (eBioscience—performed according to the manufacturer's instructions).
The experiment was performed as described under Materials and Methods, and mouse blood samples from day 7 after vaccination were analysed by flow cytometry as described. Spleen cells from day 14 were restimulated by SIINFEKL peptide and analysed by Interferon-gamma ELISA as described. All mice received OT-1 cells as described. • The following experimental groups were included: • 1. Untreated: Mice received OT-1 cells, but were not vaccinated or illuminated. • 2. OVA: Mice were vaccinated with 10 μg of OVA. They were not illuminated. • 3. OVA 100 μg: Mice were vaccinated with a mixture of 100 μg OVA. They were not illuminated. • 4. OVA 10 μg PCI: Mice were vaccinated with a mixture of 10 μg OVA+150 μg TPCS2a. Illuminated as described. • 5. CpG OVA: Mice were vaccinated with a mixture of 10 μg OVA+50 μg ODN2935 CpG oligonucleotide. They were not illuminated. • 6. CpG OVA/PCI: Mice were vaccinated with a mixture of 10 μg OVA+50 μg ODN2935 CpG oligonucleotide+150 μg TPCS2a. Illuminated as described. • 7. Poly(IC) OVA: Mice were vaccinated with a mixture of 10 μg OVA+50 μg Poly(IC). They were not illuminated. • 8. […]

[5] = system: splenocytes re-stimulated with SIINFEKL; test: IL-2 and IFN-γ ELISA of re-stimulated splenocytes (Example 2); details: day 11 splenocytes, 10 μg OVA alone, or with PCI at 25 μg TPCS2a
Experimental: Alternatively, 2×10^5 splenocytes were re-stimulated in 96-well plates with OVA protein or the SIINFEKL. After 24 and 72 hours, supernatants were collected and analysed for IL-2 or IFN-γ by ELISA (eBioscience—performed according to the manufacturer's instructions).

With “OVA: Chicken ovalbumin protein, model antigen expressed by the transfected B16 melanoma cells” the “effect on SIINFEKL-specific CD8 T cells in blood as compared to untreated animals” value ([1]; 10 μg OVA alone, data not shown) was “no measurable effect”, the “activation markers CD44, CD25 and CD69 on SIINFEKL-specific cells in blood” value ([1]; by day six) was “strong up-regulation” and the “numbers of antigen-specific CD8 T cells” value ([1]; day 23, OVA alone, or OVA plus TPCS2a illuminated two hours after administration) was “retracted to baseline levels”. The “frequencies of measurable SIINFEKL-specific CD8 T cells in splenocytes” value ([1]; day 54, 20 μg OVA with or without 200 μg TPCS2a, FIG. 14A) was “not different from untreated mice”, the “frequency of SIINFEKL-specific CD8 T cells in the peripheral blood” value ([1]; day six, 100 μg OVA alone, or with 25 μg TPCS2a illuminated two hours after vaccination) was “approximately 3.5%” and the “growth of established tumours” value [2] was “grew readily”. For the same substance, the “responders for IFN-γ production in splenocytes (better responders among mice tested)” value ([3]; day 11, 10 μg OVA alone, or OVA and PCI (ten mice, 25 and 250 μg TPCS2a)) was “weak responders in all mice tested”, the “increase in frequency of IFN-γ-producing CD44-positive CD8 cells compared to control mice with OT-I transfer only” value ([3]; day 14 PBMCs, OVA alone, or PCI with illumination at 2 hours) was 4 fold and the “frequencies of CD44-positive IFN-γ producing cells in splenocytes” value ([3]; day 23, FIG. 7E right panel) was “barely detectable frequencies”. For the same substance, the “IFN-gamma ELISA after restimulation of spleen cells with SIINFEKL peptide” value [4] was “virtually no effect”, the “IL-2 secretion by ELISA” value ([5]; 24 hours) was “weak but clearly measurable” and the “IFN-γ secretion by ELISA” value ([5]; 72 hours) was “not IFN-γ secretion”.
